Here are results for eight molecules from patent publication US4407812A, “Etheral imidazoles and use in treatment of thromboses” (Laboratoires Chauvin-Blache, priority 1980, dated 1983).

The target of data set [1] is T1, platelet thromboxane synthetase (Homo sapiens, UniProt P24557).
T1 construct: endogenous in cells; host or cells: washed platelets from platelet-rich plasma of venous blood
T1 sequence (P24557 1-533): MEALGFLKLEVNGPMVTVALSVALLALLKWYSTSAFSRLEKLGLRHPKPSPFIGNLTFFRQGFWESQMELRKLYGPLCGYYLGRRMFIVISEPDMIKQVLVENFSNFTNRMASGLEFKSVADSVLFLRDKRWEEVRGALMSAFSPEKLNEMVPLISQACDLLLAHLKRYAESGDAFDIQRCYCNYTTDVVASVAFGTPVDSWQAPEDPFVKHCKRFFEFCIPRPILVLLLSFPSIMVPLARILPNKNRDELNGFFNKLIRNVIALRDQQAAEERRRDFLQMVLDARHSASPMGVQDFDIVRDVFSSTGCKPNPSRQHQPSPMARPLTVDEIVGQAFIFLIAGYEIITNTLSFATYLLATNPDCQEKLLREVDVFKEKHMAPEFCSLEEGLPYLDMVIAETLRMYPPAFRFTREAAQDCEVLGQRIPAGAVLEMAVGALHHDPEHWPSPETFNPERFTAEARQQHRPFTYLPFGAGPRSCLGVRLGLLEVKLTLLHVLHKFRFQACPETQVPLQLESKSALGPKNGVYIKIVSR
As to the kind of experiment: Inhibition of platelet thromboxane synthetase (14C-arachidonic acid incubated with washed platelet suspension, TLC). The data set is classed as cell-based. The following applies: for IC50: 14C-arachidonic acid, 10 min, 37° C., pH 7.5, read-out: 50% inhibitory concentration (IC50). The procedure:
1.1 Inhibition of platelet thromboxane synthetase
Platelet rich plasma (PRP) is prepared by centrifugation of venous blood at 150 g×10 min. The platelets are sedimented at 2000 g×20 min. and washed in a tris-HCl buffer at pH 7.5 (15 mM) containing EDTA (1.5 mM), NaCl, (150 mM) and KCl (5 mM). The platelet pellet is then suspended in a volume of tris-HCl (50 mM) at pH 7.5 corresponding to one-half the original PRP volume. Aliquots of platelet suspension (0.5 ml) are incubated with 1 μg ^14 C-arachidonic acid (specific activity=50 mCi/mmole) as the Na salt for 10 min. at 37° C. in the presence or the absence of test material. On completion of the reaction, the incubate is cooled to 0°-4° C., made acidic and salted by addition of citric acid and NaCl and then extracted with 2×2 ml ethyl acetate. A PGE2 standard is added to the extract which, after evaporation to dryness, is submitted to a bidimensional chromatography over a thin layer of silica (Merck F 254) in the systems: (1) benzene/dioxan/acetic acid (60:30:3); (2) chloroform/methanol/acetic acid/water (90:8:1:0.8).
The PGE2 standard is visualized with phosphomolybdic acid in the hot. The radioactivity corresponding to the metabolites of arachidonic acid is measured with a Berthold scanner. […]

Data set [2] is described as follows: Acute toxicity, LD50 on intraperitoneal administration to Swiss mice. The following applies: mouse, in vivo, ip, mean ± 5% confidence interval. The source says: (§1) In Table VI are set forth results of the determination of the LD50 of Compound A on intraperitoneal administration to Wistar rats and Swiss mice.
For data set [3], the system named is arachidonic acid-induced platelet aggregation. As to the kind of experiment: Ex vivo platelet aggregation in rabbits (arachidonic acid-induced). Further details: species or system rabbit. The following applies: 5 mg/kg subcutaneous, two consecutive days, 2 hrs after second administration, arachidonic acid 2 mM. On the procedure: 2.1 Ex vivo platelet aggregation in rabbits
Groups of 3 male rabbits are treated subcutaneously for two consecutive days and their plasma is taken two hrs after the second administration. Arachidonic acid-induced (2 mM) platelet aggregation is measured by the turbidimetric method according to Born.

A short description of data set [4]: Acute toxicity, LD50 on intraperitoneal administration to Wistar rats. Particulars: rat, in vivo, ip, mean ± 5% confidence interval.
Excerpt: as §1

A short description of data set [5]: Bleeding time (ear) in rabbits. Particulars: 5 mg/kg subcutaneous, mean ± standard deviation. Format: in vivo, rabbit. On the procedure:
2.2 Bleeding time (ear) in rabbits
Groups of 3 male rabbits are treated subcutaneously with the test materials. Bleeding time (BT) is determined just before, and then 2 hours and 4 hours after their administration according to a standard procedure, by a "blind" acting experimenter.

The test system of data set [6] is thromboxane synthesis. As to the kind of experiment: Inhibition of thromboxane synthesis in collagen-stimulated PRP (thromboxane B2 radioimmunoassay). Particulars: collagen 20 μg, control 900. Format: cell-based, human. On the procedure: (§2) 3--Inhibition of collagen-induced platelet aggregation and determination of the inhibition of thromboxane synthesis.
(§3) Venous blood sampled from volunteers is collected on sodium citrate. The platelet rich plasma (PRP) is prepared by centrifugation at 150 g×10 min.
(§4) 300 μl PRP are incubated in siliconized tubes in an aggregometer in the presence or the absence of test material dissolved in 100 μl buffer, and 20 μg collagen (Stago) are then added. Platelet aggregation is recorded by the decrease of the optical density. After 4 minutes, an acetylsalicylic acid solution (2×10^-4 M final) is added to block the synthesis of prostanoids, and thromboxane B2 is titrated in the liquid phase of the incubate by radioimmunoassay.

In data set [7] the test system is collagen-induced platelet aggregation. As to the kind of experiment: Inhibition of collagen-induced platelet aggregation. The data set is classed as cell-based. Particulars: Homo sapiens, collagen 20 μg, control 100. On the procedure:
as §2, §3, §4

Counter-ions that a name gives are not always drawn.

As usually defined, the LD50 is the dose expected to kill half of the subjects tested. A higher LD50 goes with a less toxic substance.

For the molecule `c1c[nH]cn1` [Imidazole, imidazole], the “inhibition of the formation of thromboxane A2 (FIG. 2)” value in data set [1] (measured by its stable degradation product) is on record as “inhibits the formation of thromboxane A2”. Further, in data set [1] (platelet suspension), the “PGE2 formed concomitantly to thromboxane inhibition (FIG. 2)” value is reported as “increasing amounts of PGE2 are formed” and the IC50 came out at 50000 nM.
Take `CCCCCC(O)/C=C/n1ccnc1` (racemic) [Compound A, (E)-1-(3-hydroxy-octen-1-yl)imidazole (racemic)]: the LD50 in data set [2] (F) turned out to be 164 ± 6 mg/kg; in data set [2] (M), 166 ± 7 mg/kg; in data set [4] (F), 250 ± 16 mg/kg; in data set [4] (M), 270 ± 12 mg/kg. In data set [3] (controls 5), this molecule displayed a Deaggregation rate of 3 arbitrary units. Also, the Maximum aggregation in data set [3] (controls 40) is given as 28 % of maximum aggregation. In data set [3] (controls 56), this molecule showed an Aggregation rate of 32 arbitrary units. In data set [1] (platelet suspension), the IC50 came to 2500 nM. The “Bleeding time, Time 2 hours” value in data set [5] (2 hours after administration, controls 85 ± 31) was determined as 165 ± 38 s. The “Bleeding time, Time 4 hours” value in data set [5] (4 hours after administration, controls 87 ± 29) was determined as 102 ± 19 s. Besides, the “Bleeding time, Time 0” value in data set [5] (just before administration, controls 70 ± 23) was 80 ± 27 s.
Consider `CCCCCC(=O)OC(/C=C/n1ccnc1)CCCCC` (stereo not drawn) [E], for which the IC50 in data set [1] (platelet suspension) stood at 1500 nM.
As to `CCCCCC(/C=C/n1ccnc1)OC(=O)c1cccnc1` (stereo not drawn) [Compound B, (E)-1-(3-hydroxy-octen-1-yl)imidazole nicotinic ester dihydrochloride], the “T × B2 formed” value in data set [6] (10^-5 M) was 100 pmole/ml PRP; in data set [6] (10^-6 M) it was 400 pmole/ml PRP. For the same molecule, the activity at 10 µM in data set [7] (10^-5 M) came to 7%. For the same molecule, in data set [7] (10^-6 M), the activity at 1 µM was 50%. For the same molecule, the IC50 in data set [1] (platelet suspension) amounted to 1000 nM.
As for `CCCCCC(/C=C/n1ccnc1)OC(=O)c1ccccc1` (stereo not drawn) [C], the IC50 in data set [1] (platelet suspension) was 1500 nM.
As to `CCCCCC(/C=C/n1ccnc1)OCc1ccccn1` (stereo not drawn) [G, (E)-1-(3-hydroxy-octen-1-yl)imidazole 2-pyridyl methyl ether fumarate], the IC50 in data set [1] (platelet suspension) came to 1500 nM.
Take `CCCCCC(/C=C/n1ccnc1)OC(C)=O` (stereo not drawn) [D]: the IC50 in data set [1] (platelet suspension) was found to be 1500 nM.
Turning to `CCCCCC(/C=C/n1ccnc1)OCc1ccccc1` (stereo not drawn) [F], the IC50 in data set [1] (platelet suspension) is 1000 nM.
